Patent publication US6887676B1 (priority 1999, dated 2005)

Key:
type 1 PrP^Sc [1] = biological target: T1, type 1 PrP^Sc (Homo sapiens, UniProt P04156); assay type: biochemical; settings: FIGS. 3e and f; for ability of selective chelator to mirror the EDTA action on type 1 PrP^Sc cleavage: 20 mM chelator, N-ethylmorpholine buffer; for cleavage pattern of type 1 PrP^Sc digested in presence of copper-selective chelator: 20 mM, intermediate between type 1 and type 2^-
type 1 PrP^Sc [2] = biological target: T1, type 1 PrP^Sc; settings: for effectiveness in maintaining type 1 PrP^Sc conformation: 30 μM metal ion; for effect of metal ion on electrophoretic mobility of metal-depleted, proteinase K digested type 1 PrP^Sc: exposure prior to and during electrophoresis, FIG. 4b; for digestion products of type 1 PrP^Sc washed in maintained presence of metal ion: total concentrations observed in serum, FIG. 4a; for concentration at which type 1 PrP^Sc conformation could be readily maintained: washing before PK digestion
amyloid Aβ protein = settings: cited from earlier work
[3] = biological target: recombinant full length hamster PrP (Mesocricetus auratus, UniProt P04273); settings: read-out: dissociation constant of Cu^2+ binding; cited from earlier work
type 2 PrP^Sc = type 2 PrP^Sc (Homo sapiens, UniProt P04156); settings: different concentrations; FIG. 4d

recombinant full length hamster PrP, sequence (P04273 23-254 limits assumed): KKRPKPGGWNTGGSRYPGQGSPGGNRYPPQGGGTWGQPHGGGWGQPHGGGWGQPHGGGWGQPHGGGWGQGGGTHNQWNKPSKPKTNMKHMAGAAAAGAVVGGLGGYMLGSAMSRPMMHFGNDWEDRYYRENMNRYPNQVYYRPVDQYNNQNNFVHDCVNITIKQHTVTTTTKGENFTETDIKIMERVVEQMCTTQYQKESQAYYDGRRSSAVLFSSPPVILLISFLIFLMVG

O=S(=O)(O)c1ccc(-c2ccnc3c2ccc2c(-c4ccc(S(=O)(=O)O)cc4)ccnc23)cc1 [bathophenanthroline disulfonic acid]
ability of selective chelator to mirror the EDTA action on type 1 PrP^Sc cleavage (type 1 PrP^Sc [1]): unable to precisely mirror this action

[Cl][Mn][Cl] [Mn^2+]
effectiveness in maintaining type 1 PrP^Sc conformation (type 1 PrP^Sc [2]; FIG. 4c): only Ni^2+ can effectively substitute

[Cl-].[Cl-].[Co+2] [Co^2+]
effectiveness in maintaining type 1 PrP^Sc conformation (type 1 PrP^Sc [2]; FIG. 4c): only Ni^2+ can effectively substitute
cleavage pattern of type 1 PrP^Sc after washing and digestion with Co^2+ (type 1 PrP^Sc [2]; 30 μM, FIG. 4c): intermediate pattern
induction of aggregation of Aβ protein (amyloid Aβ protein): also effective

O=S(=O)([O-])[O-].[Cu+2] [Cu^2+]
Kd [3]: 14 µM
cleavage pattern of type 1 PrP^Sc after washing and digestion with Cu^2+ (type 1 PrP^Sc [2]; 20 μM of range 10-25 μM, FIG. 4a lanes 6-8): migrated with a mobility similar to that of the type 2 products
effect of metal ion on electrophoretic mobility of metal-depleted, proteinase K digested type 1 PrP^Sc (type 1 PrP^Sc [2]): had no effect
digestion products of type 1 PrP^Sc washed in maintained presence of metal ion (type 1 PrP^Sc [2]): digestion products closely resembled those generated from untreated type 1 PrP^Sc
concentration at which type 1 PrP^Sc conformation could be readily maintained (type 1 PrP^Sc [2]): higher concentrations of Cu^2+ were required
digestion products of type 2 PrP^Sc washed in maintained presence of metal ion (type 2 PrP^Sc): either the original type 2 pattern of digestion products, or a new pattern of higher molecular mass cleavage fragments closely similar to those generated from untreated type 1 PrP^Sc
induction of aggregation of Aβ protein (amyloid Aβ protein): able to induce aggregation of Aβ protein

[Cl][Ni][Cl] [Ni^2+]
effectiveness in maintaining type 1 PrP^Sc conformation (type 1 PrP^Sc [2]; FIG. 4c): can effectively substitute
induction of aggregation of Aβ protein (amyloid Aβ protein): also effective

NCCNCCNCCN [triethylenetetramine]
ability of selective chelator to mirror the EDTA action on type 1 PrP^Sc cleavage (type 1 PrP^Sc [1]): unable to precisely mirror this action
cleavage pattern of type 1 PrP^Sc digested in presence of copper-selective chelator (type 1 PrP^Sc [1]): intermediate pattern

O=C(O)CN(CCOCCOCCN(CC(=O)O)CC(=O)O)CC(=O)O [EGTA]
ability of selective chelator to mirror the EDTA action on type 1 PrP^Sc cleavage (type 1 PrP^Sc [1]): unable to precisely mirror this action
cleavage pattern of type 1 PrP^Sc digested in presence of copper-selective chelator (type 1 PrP^Sc [1]): intermediate pattern

Cc1ccc2ccc3ccc(C)nc3c2n1 [neocuproine]
ability of selective chelator to mirror the EDTA action on type 1 PrP^Sc cleavage (type 1 PrP^Sc [1]): unable to precisely mirror this action

c1cnc2c(c1)ccc1cccnc12 [1, 10 phenanthroline]
ability of selective chelator to mirror the EDTA action on type 1 PrP^Sc cleavage (type 1 PrP^Sc [1]): unable to precisely mirror this action

[Cl-].[Cl-].[Zn+2] [Zn^2+]
effect of metal ion on electrophoretic mobility of metal-depleted, proteinase K digested type 1 PrP^Sc (type 1 PrP^Sc [2]): had no effect
digestion products of type 1 PrP^Sc washed in maintained presence of metal ion (type 1 PrP^Sc [2]): digestion products closely resembled those generated from untreated type 1 PrP^Sc
concentration at which type 1 PrP^Sc conformation could be readily maintained (type 1 PrP^Sc [2]): 10 µM
digestion products of type 2 PrP^Sc washed in maintained presence of metal ion (type 2 PrP^Sc): either the original type 2 pattern of digestion products, or a new pattern of higher molecular mass cleavage fragments closely similar to those generated from untreated type 1 PrP^Sc
induction of aggregation of Aβ protein (amyloid Aβ protein): able to induce aggregation of Aβ protein

O=C(O)c1cccc(C(=O)O)n1 [dipicolinic acid]
ability of selective chelator to mirror the EDTA action on type 1 PrP^Sc cleavage (type 1 PrP^Sc [1]): unable to precisely mirror this action
